Assay results taken from US5869457A, “Modified proteins and their use for controlling viral infections” (Rijksuniversiteit Te Groningen, priority 1991, dated 1999).

Columns and labels:
[1] = tested on: OKT4A epitope of the CD4 receptor; assay: CD4 immunofluorescence assay, OKT4A mAb-CD4 interaction on MT-4 cells; conditions: at 25 μg/ml
plasma = assay: anticoagulant action determined as APTT; type: biochemical
Procedure: The compounds were dissolved in PBS of pH 7.2 and 30 μl were added to 270 μl of plasma.
APTT=activated partial thromboplastin time (seconds) APTT was determined electromechanically using standard methods.

| Compound | inhibition of OKT4A mAb-CD4 interaction [1] | Anticoagulant action, APTT (plasma; 0.01 μg/ml) [s] | Anticoagulant action, APTT (plasma; 0.1 μg/ml) [s] | Anticoagulant action, APTT (plasma; 1 μg/ml) [s] | Anticoagulant action, APTT (plasma; 3 μg/ml) [s] | Anticoagulant action, APTT (plasma; 5 μg/ml) [s] | Anticoagulant action, APTT (plasma; 10 μg/ml) [s] | Anticoagulant action, APTT (plasma; 100 μg/ml) [s] | anticoagulant activity as side effect (plasma; in words) |
| --- | --- | --- | --- | --- | --- | --- | --- | --- | --- |
| O=C(O)C1=CC(=C(c2ccc(O)c(C(=O)O)c2)c2ccc(O)c(C(=O)O)c2)C=CC1=O [Aurintricarboxylic acid (ATA), Aurintricarboxylic acid] | completely inhibited | – | – | – | – | – | – | – | – |
| Heparin | – | 38.4 | 40.3 | 40.5 | 65 | 140 | 220 | > 400 | serious anticoagulant activity |
